Laboratory results reported in ChEMBL document CHEMBL1136023, “Antifungal Sordarins. Part 4: synthesis and structure--activity relationships of 3',4'-fused alkyl-tetrahydrofuran derivatives” (2002).
Converted amounts (≈) assume the structure as drawn.

Experiments:
Assay type in all cases: functional
Nakaseomyces glabratus = test: Minimal inhibitory effect against the Candida glabrata (2375E).
Candida albicans [1] = test: Minimal inhibitory effect against the Candida albicans (2005E).
Aspergillus flavus = test: Minimal inhibitory effect against the Aspergillus flavus (C1150).
Kluyveromyces marxianus = test: Minimal inhibitory effect against the Candida pseudotropicalis (2371E).
Cryptococcus neoformans = test: Minimal inhibitory effect against the Cryptococcus neoformans (2867E).
Candida tropicalis = test: Minimal inhibitory effect against the Candida tropicalis (2808E).
Candida parapsilosis = test: Minimal inhibitory effect against the Candida parapsilosis (2372E).; conditions: Lodderomyces parapsilosis
Candida albicans [2] = test: Minimal inhibitory effect against the Candida albicans (4711E).

Compound	MIC (Nakaseomyces glabratus) [mg/L]	MIC (Candida albicans [1]) [mg/L]	MIC (Aspergillus flavus) [mg/L]	MIC (Kluyveromyces marxianus) [mg/L]	MIC (Cryptococcus neoformans) [mg/L]	MIC (Candida tropicalis) [mg/L]	MIC (Candida parapsilosis) [mg/L]	MIC (Candida albicans [2]) [mg/L]
CC(C)C1=CC2CC3(C=O)[C@@H]4CC[C@@H](C)[C@H]4CC2(CO[C@H]2C[C@@H]4OC[C@H](C)[C@@H]4[C@@H](C)O2)C13C(=O)O (stereo partly specified)	16 (≈ 32.9 µM)	0.001 (≈ 0.00205 µM)	> 125	< 0.001	0.5 (≈ 1.03 µM)	0.03 (≈ 0.0616 µM)	> 125	0.004 (≈ 0.00822 µM)
CC(C)C1=CC2CC3(C=O)[C@@H]4CC[C@@H](C)[C@H]4CC2(CO[C@H]2C[C@H]4[C@H](OC[C@H]4C)[C@@H](C)O2)C13C(=O)O (stereo partly specified)	4 (≈ 8.22 µM)	0.001 (≈ 0.00205 µM)	> 125	0.001 (≈ 0.00205 µM)	4 (≈ 8.22 µM)	0.004 (≈ 0.00822 µM)	> 125	< 0.001
CC(C)C1=CC2CC3(C=O)[C@@H]4CC[C@@H](C)[C@H]4CC2(CO[C@H]2C[C@H]4[C@H](OC[C@H]4C(C)C)[C@@H](C)O2)C13C(=O)O (stereo partly specified)	62 (≈ 120 µM)	< 0.001	> 125	< 0.001	4 (≈ 7.77 µM)	2 (≈ 3.89 µM)	> 125	< 0.001
CC(C)C1=CC2CC3(C=O)[C@@H]4CC[C@@H](C)[C@H]4CC2(CO[C@H]2C[C@@H]4OC(C)(C)O[C@@H]4[C@@H](C)O2)C13C(=O)O (stereo partly specified)	31 (≈ 61.7 µM)	< 0.001	> 125	0.004 (≈ 0.00796 µM)	0.12 (≈ 0.239 µM)	0.12 (≈ 0.239 µM)	> 125	0.004 (≈ 0.00796 µM)
CC(C)C1=CC2CC3(C=O)[C@@H]4CC[C@@H](C)[C@H]4CC2(CO[C@H]2C[C@H]4[C@H](OC[C@@H]4C(C)C)[C@@H](C)O2)C13C(=O)O (stereo partly specified)	2 (≈ 3.89 µM)	< 0.001	> 125	< 0.001	0.25 (≈ 0.486 µM)	0.004 (≈ 0.00777 µM)	16 (≈ 31.1 µM)	< 0.001
CC(C)C1=CC2CC3(C=O)[C@@H]4CC[C@@H](C)[C@H]4CC2(CO[C@H]2C[C@H]4[C@H](OC[C@@H]4C)[C@@H](C)O2)C13C(=O)O (stereo partly specified)	0.5 (≈ 1.03 µM)	< 0.001	62 (≈ 127 µM)	0.004 (≈ 0.00822 µM)	0.25 (≈ 0.514 µM)	0.008 (≈ 0.0164 µM)	2 (≈ 4.11 µM)	< 0.001
CC[C@@H]1CO[C@H]2[C@@H]1C[C@H](OCC13C[C@@H]4[C@H](C)CC[C@H]4C4(C=O)CC1C=C(C(C)C)C34C(=O)O)O[C@@H]2C (stereo partly specified)	4 (≈ 7.99 µM)	< 0.001	> 125	< 0.001	1 (≈ 2 µM)	< 0.001	> 125	< 0.001
CC(C)C1=CC2CC3(C=O)[C@@H]4CC[C@@H](C)[C@H]4CC2(CO[C@H]2C[C@@H]4OC[C@@H](C)[C@@H]4[C@@H](C)O2)C13C(=O)O (stereo partly specified)	8 (≈ 16.4 µM)	< 0.001	> 125	< 0.001	1 (≈ 2.05 µM)	0.008 (≈ 0.0164 µM)	> 125	< 0.001
OC(Cn1cncn1)(Cn1cncn1)c1ccc(F)cc1F [FLUCONAZOLE]	4 (≈ 13.1 µM)	–	–	–	–	2 (≈ 6.53 µM)	0.5 (≈ 1.63 µM)	0.12 (≈ 0.392 µM)
CC[C@H]1CO[C@H]2[C@@H]1C[C@H](OCC13C[C@@H]4[C@H](C)CC[C@H]4C4(C=O)CC1C=C(C(C)C)C34C(=O)O)O[C@@H]2C (stereo partly specified)	0.5 (≈ 0.999 µM)	< 0.001	62 (≈ 124 µM)	< 0.001	< 0.25	< 0.001	4 (≈ 7.99 µM)	< 0.001
CC[C@@H]1CO[C@H]2C1[C@H](O)[C@H](OCC13C[C@@H]4[C@H](C)CC[C@H]4C4(C=O)CC1C=C(C(C)C)C34C(=O)O)O[C@@H]2C (single isomer, unassigned)	16 (≈ 31 µM)	0.015 (≈ 0.029 µM)	> 125	0.06 (≈ 0.116 µM)	< 0.25	0.25 (≈ 0.484 µM)	125 (≈ 242 µM)	0.12 (≈ 0.232 µM)
CC(C)C1=CC2CC3(C=O)[C@@H]4CC[C@@H](C)[C@H]4CC2(CO[C@@H]2O[C@H](C)[C@H]4OC[C@@H](C)C4[C@@H]2O)C13C(=O)O (single isomer, unassigned)	62 (≈ 123 µM)	0.008 (≈ 0.0159 µM)	> 125	0.25 (≈ 0.497 µM)	31 (≈ 61.7 µM)	0.5 (≈ 0.995 µM)	125 (≈ 249 µM)	0.25 (≈ 0.497 µM)
CC[C@H]1CO[C@H]2C1[C@H](O)[C@H](OCC13C[C@@H]4[C@H](C)CC[C@H]4C4(C=O)CC1C=C(C(C)C)C34C(=O)O)O[C@@H]2C (single isomer, unassigned)	8 (≈ 15.5 µM)	0.03 (≈ 0.0581 µM)	> 125	0.06 (≈ 0.116 µM)	< 0.25	0.5 (≈ 0.968 µM)	125 (≈ 242 µM)	0.12 (≈ 0.232 µM)
CC(C)C1=CC2CC3(C=O)[C@@H]4CC[C@@H](C)[C@H]4CC2(CO[C@@H]2O[C@H](C)[C@H]4OC[C@H](C)C4[C@@H]2O)C13C(=O)O (single isomer, unassigned)	31 (≈ 61.7 µM)	0.5 (≈ 0.995 µM)	> 125	1 (≈ 1.99 µM)	1 (≈ 1.99 µM)	2 (≈ 3.98 µM)	125 (≈ 249 µM)	1 (≈ 1.99 µM)
CC(C)C1=CC2CC3(C=O)[C@@H]4CC[C@@H](C)[C@H]4CC2(CO[C@H]2C[C@H]4[C@H](OCC4(C)C)[C@@H](C)O2)C13C(=O)O (stereo partly specified)	8 (≈ 16 µM)	< 0.001	> 125	< 0.001	4 (≈ 7.99 µM)	0.06 (≈ 0.12 µM)	> 125	< 0.001
